Columns and labels:
Myzus persicae = Myzus persicae (Green peach aphid) sunflower leaf disc spray test; assay type: in vivo; conditions: application rate 200 ppm, sprayed sunflower leaf discs, aphid population of mixed ages, mortality 6 DAT
Protocol: Myzus persicae (Green peach aphid):
Sunflower leaf discs were placed on agar in a 24-well microtiter plate and sprayed with test solutions at an application rate of 200 ppm. After drying, the leaf discs were infested with an aphid population of mixed ages. After an incubation period of 6 DAT, samples were checked for mortality. The following compound gave at least 80% control of Myzus persicae: A3.

Structure (SMILES)	melting point [°C]	control of Myzus persicae (Myzus persicae)
O=C(Nc1c(Cl)cc(C(F)(c2ccsc2)C(F)(F)F)cc1Cl)c1cccc(NC(=O)c2c(F)cc(F)cc2F)c1F (centres unmarked) [A5, N-{3-[2,6-Dichloro-4-(2,2,2-trifluoro-1-fluoro-1-thiophen-3-ylethyl)-phenylcarbamoyl]-2-fluorophenyl}-2,4,6-trifluorobenzamide]	197 to 199	
COc1c(NC(=O)c2ccccc2)cccc1C(=O)Nc1c(Cl)cc(C(F)(c2ccc(Cl)cc2)C(F)(F)F)cc1Cl (centres unmarked) [A3]		at least 80%
